Test results: US11590109B2 (priority 2016, dated 2023)

How the values were obtained:
in vitro [1] = details: African green monkey, TC50, host cell Vero
Zika Virus = assay: Inhibition of viral replication (CPE) at cellular level, Zika Virus in Vero
H7N9 (influenza virus) [2] = assay: microbe, parasite or virus in culture; details: Influenza A virus, H7N9, MDCK
[3] = tested on: EV71 (hand-foot-and-mouth virus); details: EV71 in host cell RD
[4] = tested on: JEV (Japanese encephalitis virus); assay: Inhibition of viral replication (CPE) at cellular level, JEV in Vero
in vitro [5] = details: dog
H1N1 (influenza virus) [6] = assay: microbe, parasite or virus in culture; details: Influenza A virus, H1N1, MDCK
H3N2 (influenza virus) [7] = details: H3N2 in host cell MDCK
influenza virus = assay: microbe, parasite or virus in culture; format: cell-based; details: unidentified influenza virus, MDCK, read-out: inhibitory effect on influenza virus
[8] = Determination of TC50 (half toxicity concentration) in RD cells; format: cell-based; details: human, host cell RD, EV71 table
H3N2 (influenza virus) [9] = assay: microbe, parasite or virus in culture; details: Influenza A virus, H3N2, MDCK
[10] = tested on: H7N9 avian influenza virus; format: in vivo; details: lethal dose H7N9 (1MLD50) nasal, Compound 16 10 mg/kg, Oseltamivir 20 mg/kg, intraperitoneal, once a day for first 5 days, FIG. 4
[11] = tested on: Dengue Virus 2 (type 2 dengue virus); assay: Inhibition of viral replication (CPE) at cellular level, Dengue Virus 2 in Vero; format: cell-based; details: Dengue Virus 2 in host cell Vero
Text: Activity Test for Inhibition of Viral Replication at Cellular Level […]
The present inventors tested inhibitory effects of the compound of the present invention on cytopathic effects (CPE) caused by viral infection on mammalian cells.
Half-inhibitory concentration IC50 and half toxic concentration TC50 of the compound against Dengue Virus 2 (type 2 dengue virus) in host cell Vero (African green monkey kidney cell).

H7N9 (influenza virus) [12] = details: H7N9 in host cell MDCK
[13] = tested on: EV71 (hand-foot-and-mouth virus); assay: microbe, parasite or virus in culture; details: Enterovirus A
H1N1 (influenza virus) [14] = details: H1N1 in host cell MDCK
[15] = tested on: RSV (human respiratory syncytial virus); assay: Inhibition of viral replication (CPE) at cellular level, RSV in Vero

O=C(O)c1ccccc1/C=N/Nc1nc(-c2ccccc2Cl)cs1 [Compound 16, (E)-4-(2-chlorophenyl)-2-(2-carboxybenzylidenehydrazino)thiazole]
CC50 (in vitro [1]; Dengue Virus 2 table): 20000 nM | CC50 (in vitro [1]; RSV table): 20000 nM | CC50 (in vitro [1]; Zika Virus table): 20000 nM | SI (TC50/IC50) (Zika Virus; Zika Virus in host cell Vero): 133 | IC50 (Zika Virus; Zika virus, Vero): 150 nM | IC50 (H7N9 (influenza virus) [2]): 1200 nM | SI (TC50/IC50) [3]: 3.3 | SI (TC50/IC50) ([4]; JEV in host cell Vero): 100 | IC50 ([4]; Japanese encephalitis virus, Vero): 200 nM | CC50 (in vitro [5]): > 50000 nM | IC50 (H1N1 (influenza virus) [6]): 500 nM | SI (TC50/IC50) (H3N2 (influenza virus) [7]): >250 | IC50 (influenza virus): ~2000 nM | CC50 [8]: 1000 nM | IC50 (H3N2 (influenza virus) [9]): 200 nM | therapeutic effect, recovery in the body weight of infected mice [10]: therapeutic effects similar to the positive drug Oseltamivir | SI (TC50/IC50) [11]: 167 | IC50 ([11]; CPE): 120 nM | SI (TC50/IC50) (H7N9 (influenza virus) [12]): >41.7 | IC50 [13]: 300 nM | SI (TC50/IC50) (H1N1 (influenza virus) [14]): >100 | inhibitory effects on human respiratory syncytial virus RSV ([15]; FIG. 3): a certain inhibitory effects | SI (TC50/IC50) ([15]; RSV in host cell Vero): 4 | IC50 ([15]; human respiratory syncytial virus, Vero): 5000 nM
